In data set [1] the test system is SKOV3. As to the kind of experiment: Cell-Titer Glo Cell Growth Inhibition Assay, SKOV-3. The data set is classed as cell-based. To be noted: Homo sapiens, SK-OV-3, CellTiter-Glo, 72 h, read-out: CTG SKOV-3 IC50. On the procedure: (§1) A549-L (human lung), BT474 (human breast), Colo 205 (human colon), H1299 (human lung), Hela (human cervix), HCT-116 (human colon), HN5 (human head and neck), HT29 (human colon), LNCap (human prostate), MCF7 (human breast), MDA-MB468 (human breast), MX-1 (human breast), RPMI 8226 (human peripheral blood), SKOV3 (human ovary) and P388 (murine leukemia) cell lines were cultured in RPMI1640 containing 10% fetal bovine serum at 37° C. in a 5% CO2 incubator. Cell lines were split into T75 flasks (Falcon #353136) two to three days prior to assay set up at density which yields approximately 70-80% confluency at time of harvest for assay. Cells were harvested using 0.25% trypsin with EDTA (Glibco/Invitrogen #25200-056), Cell counts were performed on cell suspensions using Trypan Blue exclusion staining, cells were then plated in 105 uL of culture media per well at the following densities in 96 well Costar #3916 black flat bottom plates: All human cell lines were plated at 500 cells/well. P388 were plated at 250 cells/well. All plates were placed at 5% CO2 37° C. overnight and then test compounds were added the following day. One plate of each cell type is treated with CellTiter-Glo (Promega #G7573) for a day 0 proliferation measurement and read as described below. The test compounds are prepared in clear U bottom polypropylene 96 well plates (Falcon #35-1190 with consecutive two fold dilutions. 9 uL of these dilutions was added into each well of the cell plates. The final concentration of DMSO in all wells is 0.15%. Cells were incubated at 37° C., 5% CO2 for 72 h. Following 72 h of incubation with compounds each plate was developed and read. CellTiter-Glo reagent was added to assay plates using a volume equivalent to the cell culture volume in the wells. Plates were shaken for approximately two minutes and incubated at room temperature for approximately 15 min and the chemiluminescent signal is read on the Victor V or Envison 2100 reader. […] Concentration of compound that inhibited 50% of cell growth (IC50) was analysis by 4 or 6 parameter fit of data using XLfit, value of no cell addition was subtracted from all samples for background.

For data set [2], the system named is MCF7. As to the kind of experiment: Cell-Titer Glo Cell Growth Inhibition Assay, MCF7. The data set is classed as cell-based. To be noted: Homo sapiens, CellTiter-Glo, 72 h, read-out: CTG MCF7 IC50. As for the experimental part: (§2) A549-L (human lung), BT474 (human breast), Colo 205 (human colon), H1299 (human lung), Hela (human cervix), HCT-116 (human colon), HN5 (human head and neck), HT29 (human colon), LNCap (human prostate), MCF7 (human breast), MDA-MB468 (human breast), MX-1 (human breast), RPMI 8226 (human peripheral blood), SKOV3 (human ovary) and P388 (murine leukemia) cell lines were cultured in RPMI1640 containing 10% fetal bovine serum at 37° C. in a 5% CO2 incubator. Cell lines were split into T75 flasks (Falcon #353136) two to three days prior to assay set up at density which yields approximately 70-80% confluency at time of harvest for assay. Cells were harvested using 0.25% trypsin with EDTA (Glibco/Invitrogen #25200-056), Cell counts were performed on cell suspensions using Trypan Blue exclusion staining, cells were then plated in 105 uL of culture media per well at the following densities in 96 well Costar #3916 black flat bottom plates: All human cell lines were plated at 500 cells/well. P388 were plated at 250 cells/well. All plates were placed at 5% CO2 37° C. overnight and then test compounds were added the following day. One plate of each cell type is treated with CellTiter-Glo (Promega #G7573) for a day 0 proliferation measurement and read as described below. […]
On the technique in general: ATP-based viability assays read luminescence as a measure of living cells.

Data set [3] deals with RPMI 8226. As to the kind of experiment: Cell-Titer Glo Cell Growth Inhibition Assay, RPMI 8226. Particulars: Homo sapiens, CellTiter-Glo, 72 h, read-out: CTG RPMI 8226 IC50. The data set is classed as cell-based. As for the experimental part: as §2
The subject of data set [4] is BT474. As to the kind of experiment: Cell-Titer Glo Cell Growth Inhibition Assay, BT474. The data set is classed as cell-based. Particulars: Homo sapiens; CellTiter-Glo, 72 h, BT 474; read-out: CTG BT 474 IC50. On the procedure:
as §2

The test system of data set [5] is MDA-MB468. As to the kind of experiment: Cell-Titer Glo Cell Growth Inhibition Assay, MDA-MB468. The data set is classed as cell-based. To be noted: Homo sapiens, MDA-MB-468, CellTiter-Glo, 72 h, read-out: CTG MDA-MB468 IC50. As for the experimental part:
as §2

Data set [6] has as its system H1299. As to the kind of experiment: Cell-Titer Glo Cell Growth Inhibition Assay, H1299. Particulars: Homo sapiens, NCI-H1299, CellTiter-Glo, 72 h, read-out: CTG H1299 IC50. It counts as cell-based. On the procedure:
as §2

Data set [7] in a line: Intravenous pharmacokinetics in CD-1 mouse. To be noted: plasma, iv bolus, male CD-1 mouse, dose 1.9-7.4 mg/kg per compound (Table 3). It counts as in vivo. On the procedure: Preliminary investigation of the intravenous pharmacokinetics of compounds of invention were carried out in fed conscious CD-1 mouse. Compounds were formulated as 1-10 mg/kg, 5 mL/kg, 1-2 mg/mL solution (Table 3). Twenty one male mice (n=3 mice per time point) (˜30 g) received dose solution by bolus injection in the tail vein. The formulation for iv were either 20% beta cyclodextrin in saline pH 3.5-6 or PEG400:ethanol:saline (50:15:35 v/v). Blood samples (˜0.4 mL) were collected terminally by cardiac puncture following anesthetization in a CO2 chamber at 2, 15, 30, 60 min, 2, 4, and 6 h following iv administration. Blood samples were collected into tubes containing heparin and placed on crushed ice promptly after collection. Plasma was collected by centrifugation, frozen and stored at about −80° C. prior to analysis. Blood or plasma concentrations were determined by LC/MS/MS equipped with an electrospray ion source and using calibration curves for the appropriate matrix. The lower level of quantitation (LLQ) was 10 ng/mL. Blood or plasma concentration-time data were analyzed by non-compartmental methods using the computer program WinNonlin Professional (version 4.1). Area under the blood or plasma concentration-time curve (AUC) was calculated using the linear trapezoidal rule for each incremental trapezoid up to Cmax, and the log trapezoidal rule for each trapezoid thereafter. The terminal elimination rate constant (λz) was derived from the log-linear disposition phase of the concentration-time curve using least-squares regression analysis with visual inspection of the data to determine the appropriate number of terminal data points for regression analysis.
Following iv administration, the total body clearance (CL) was estimated. CL was calculated by dividing the dose by AUC(0−t). The clearance values were assigned as follows. Low <30 mL/min/kg, moderate 30-70 mL/min/kg, high >70 mL/min/kg. The assignment was based on hepatic blood flow i.e. hepatic blood flow of 0-30% low, 30-70% moderate and 70-100% high. The hepatic blood flow in mouse is ˜100 mL/min/kg.

Data set [8] concerns HT29. As to the kind of experiment: Cell-Titer Glo Cell Growth Inhibition Assay, HT29. The data set is classed as cell-based. Particulars: Homo sapiens, HT-29, CellTiter-Glo, 72 h, read-out: CTG HT29 IC50. On the procedure: as §1
Data set [9] deals with HN5. As to the kind of experiment: Cell-Titer Glo Cell Growth Inhibition Assay, HN5. It counts as cell-based. Particulars: Homo sapiens, CellTiter-Glo, 72 h, read-out: CTG HN5 IC50. As for the experimental part: as §2
Data set [10] has as its system MX-1. As to the kind of experiment: Cell-Titer Glo Cell Growth Inhibition Assay, MX-1. It counts as cell-based. To be noted: Homo sapiens, MX1, CellTiter-Glo, 72 h, read-out: CTG MX-1 IC50. As for the experimental part: as §1
In data set [11] the test system is Hela. As to the kind of experiment: Cell-Titer Glo Cell Growth Inhibition Assay, Hela. The data set is classed as cell-based. To be noted: Homo sapiens, CellTiter-Glo, 72 h, read-out: CTG Hela IC50. On the procedure: as §2
Data set [12] concerns Colo 205. As to the kind of experiment: Cell-Titer Glo Cell Growth Inhibition Assay, COLO205. The data set is classed as cell-based. To be noted: Homo sapiens, CellTiter-Glo, 72 h, read-out: CTG COLO205 IC50. As for the experimental part:
as §1

Data set [13] has as its system P388. As to the kind of experiment: Cell-Titer Glo Cell Growth Inhibition Assay, P388. Particulars: Mus musculus, CellTiter-Glo, 72 h, read-out: CTG P388 IC50. The data set is classed as cell-based, murine. As for the experimental part:
as §1

The test system of data set [14] is HCT-116. As to the kind of experiment: Cell-Titer Glo Cell Growth Inhibition Assay, HCT116. It counts as cell-based. Particulars: Homo sapiens, CellTiter-Glo, 72 h, read-out: CTG HCT116 IC50. As for the experimental part:
as §1

The subject of data set [15] is LNCap. As to the kind of experiment: Cell-Titer Glo Cell Growth Inhibition Assay, LNCap. It counts as cell-based. To be noted: Homo sapiens, CellTiter-Glo, 72 h, read-out: CTG LNCap IC50. As for the experimental part: as §2
Data set [16] has as its system A549-L. As to the kind of experiment: Cell-Titer Glo Cell Growth Inhibition Assay, A549-L. The data set is classed as cell-based. To be noted: Homo sapiens, CellTiter-Glo, 72 h, read-out: CTG A549-L IC50. On the procedure: as §1

The source of these data is patent publication US20080214563A1, “Benzimidazole Thiophene Compounds As Plk Modulators” (priority 2005, published 2008).

pIC50: −log10 of the molar value.

What is called pIC50 is −log10 of the IC50, conventionally taken in molar units. As usually defined, the AUC(0-t) is the area under the concentration-time curve up to a stated or last time point. Low values mean less exposure, high ones more exposure.

Consider `CCN1CCN(CCCn2cc(-c3ccc4c(c3)ncn4-c3cc(O[C@H](C)c4ccccc4Cl)c(C(N)=O)s3)cn2)CC1` [Example 8, 3-{[(1R)-1-(2-Chlorophenyl)ethyl]oxy}-5-(5-{1-[3-(4-ethyl-1-piperazinyl)propyl]-1H-pyrazol-4-yl}-1H-benzimidazol-1-yl)-2-thiophenecarboxamide], for which the pIC50 in data set [1], in data set [2], in data set [3], in data set [4], in [5] and in data set [6] was above 7.00 throughout. For the same compound, the pIC50 in data set [8], in data set [9], in data set [10], in data set [11], in data set [12] and in data set [13] was above 7.00 each time. For the same compound, the pIC50 in data set [14], in data set [15] and in data set [16] was above 7.00 throughout. This compound also gave an AUC(0-t) in data set [7] of 1410 ng·h/mL. The clearance in [7] (read-out: Plasma CL) turned out to be 43.6 mL/min/kg.
